Holding throughout (format): functional
Test [1] is filed under the species Cavia porcellus. In words: In vitro cardiac calcium channel (CC) agonist activity. The settings on record: read-out: ED50 (the source's name).
The species named for test [2] is Cavia porcellus. In words: In vitro for smooth muscle calcium channel antagonist activity. The note with it: Muscle tissue.
Test [3] is filed under the species Cavia porcellus. In words: In vitro release of nitric oxide by nitrite quantitation in the absence of N-acetyl-cysteamine by Griess reaction. (In general: Nitrite, measured by Griess reagent, commonly stands in for NO production.)
The species entered for test [4] is Cavia porcellus. In words: In vitro release of nitric oxide by nitrite quantitation in the presence of N-acetyl-cysteamine by Griess reaction.
The species named for test [5] is Cavia porcellus. Nature of the test: In vitro for cardiac calcium channel (CC) agonist activity; Active. The note with it: read-out: ED50 (the source's name).

As usually defined, the IC50 is the concentration that inhibits the measured activity by half. Consider `CC1=NC(C)=C([N+](=O)[O-])[C@H](c2ccccc2C(F)(F)F)/C1=C(\O)OCCO[N+](=O)[O-]`, for which the EC50 in the test listed under Cavia porcellus [1] came to 16 µM. In the test filed under Cavia porcellus [2], the half-inhibitory concentration (IC50) is 0.079 µM.

`O=[N+]([O-])OCC(CO[N+](=O)[O-])O[N+](=O)[O-]` [NITROGLYCERIN]: the Release came out at 0.18% in the test filed under Cavia porcellus [3] and 5.3% in the test listed under Cavia porcellus [4].

As to `CO/C(O)=C1\C(C)=NC(C)=C([N+](=O)[O-])[C@H]1c1ccccc1C(F)(F)F`, the EC50 in the test filed under Cavia porcellus [5] came to 0.92 µM. Further, the IC50 in the test filed under Cavia porcellus [2] is 16 µM.

Take `CC1=NC(C)=C([N+](=O)[O-])C(c2ccccc2C(F)(F)F)/C1=C(\O)OCCO[N+](=O)[O-]` (stereo not given): the Release was 1.09% in the test listed under Cavia porcellus [3] and 2.7% in the test filed under Cavia porcellus [4].

Take `CC1=NC(C)=C([N+](=O)[O-])[C@@H](c2ccccc2C(F)(F)F)/C1=C(\O)OCCO[N+](=O)[O-]`: the EC50 in the test listed under Cavia porcellus [1] worked out at 0.92 µM. Besides, the 50% inhibitory concentration (IC50) in the test listed under Cavia porcellus [2] stood at 16 µM.

(Values after ChEMBL document CHEMBL1131970, “The design of (-)-(S)-2-nitrooxyethyl 1,4-dihydro-2,6-dimethyl-3-nitro-4-(2-trifluoromethylphenyl) pyridine-5-carboxylate: a cardioselective positive inotropic derivative of Bay K 8644” (Bioorg Med Chem Lett, 1999).)
